Target: Thromboxane-A synthase (Oryctolagus cuniculus)
Test: Inhibition of Thromboxane A2 synthetase in rabbit platelets

IC50	SMILES
3.2 µM	CCOC(=O)C1=C(Cn2ccnc2)N=C(C)C(C(=O)OC)C1c1ccccc1[N+](=O)[O-] (stereo not drawn)
5 µM	CCOC(=O)C1=C(Cn2ccnc2)N=C(C)C(C(=O)OC)C1c1cccc([N+](=O)[O-])c1 (stereo not drawn)
16 µM	CCOC(=O)C1=C(Cn2ccnc2)N=C(C)C(C(=O)OC)C1c1cccc(C(F)(F)F)c1Cl (stereo not drawn)

The remaining lines, values behind:

SMILES	IC50
CCOC(=O)C1=C(CCn2ccnc2)N=C(C)C(C(=O)OCC)C1c1cccc([N+](=O)[O-])c1 (stereo not drawn)	11 µM
CCOC(=O)C1=C(Cn2ccnc2)N=C(C)C(C(=O)OC(C)(C)C)C1c1cccc([N+](=O)[O-])c1 (stereo not drawn)	23 µM
CCOC(=O)C1=C(COCCn2ccnc2)N=C(C)C(C(=O)OC)C1c1cccc([N+](=O)[O-])c1 (stereo not drawn)	115 µM
CCOC(=O)C1=C(Cn2ccnc2)N=C(C)C(C(=O)OCC)C1c1cccc([N+](=O)[O-])c1 (stereo not drawn)	1.4 µM
CCOC(=O)C1=C(Cn2ccnc2)N=C(C)C(C(=O)OC(C)C)C1c1cccc([N+](=O)[O-])c1 (stereo not drawn)	2 µM

Source: BindingDB's records for doi:10.1021/jm00164a028 (Wyeth Research, 1990)
